One data set addresses CYP2C9 (Homo sapiens, UniProt P11712). The data set is described as follows: Inhibition of CYP2C9 (unknown origin) at 10 uM relative to control. In kind it is ADME.
In another data set the target is CYP2D6 (Homo sapiens, UniProt P10635). The data set is described as follows: Inhibition of CYP2D6 (unknown origin) at 10 uM relative to control. In kind it is ADME.
The next data set concerns the target T1, SIRT7 (Homo sapiens, UniProt Q9NRC8).
T1 sequence (Q9NRC8 whole entry): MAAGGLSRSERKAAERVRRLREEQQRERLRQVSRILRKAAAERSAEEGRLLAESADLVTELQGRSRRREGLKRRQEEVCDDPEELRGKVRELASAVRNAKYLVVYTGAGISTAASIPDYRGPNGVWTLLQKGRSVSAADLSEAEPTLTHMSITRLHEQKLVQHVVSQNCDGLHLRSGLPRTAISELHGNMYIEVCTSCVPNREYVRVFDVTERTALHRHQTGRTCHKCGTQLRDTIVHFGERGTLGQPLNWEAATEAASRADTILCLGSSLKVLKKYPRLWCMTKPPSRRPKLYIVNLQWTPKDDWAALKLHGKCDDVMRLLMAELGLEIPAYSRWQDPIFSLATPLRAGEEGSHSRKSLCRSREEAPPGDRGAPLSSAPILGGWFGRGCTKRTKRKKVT
The data set is described as follows: Inhibition of SIRT7 (unknown origin) at 10 uM relative to control.

Another data set addresses Aurora B (Homo sapiens, UniProt Q96GD4). The data set is described as follows: Inhibition of Aurora B (unknown origin) at 10 uM relative to control.
Data set [1] can be described thus: Cytotoxicity against human hTERT cells assessed as cell growth inhibition at 10 uM after 48 hrs relative to control. In kind it is cell-based, hTERT-BJ.
For the next data set, the target named is CYP3A4 (Homo sapiens, UniProt P08684). The data set is described as follows: Inhibition of CYP3A4 (unknown origin) at 10 uM relative to control. The format is ADME.
CYP3A4, sequence (P08684 whole entry): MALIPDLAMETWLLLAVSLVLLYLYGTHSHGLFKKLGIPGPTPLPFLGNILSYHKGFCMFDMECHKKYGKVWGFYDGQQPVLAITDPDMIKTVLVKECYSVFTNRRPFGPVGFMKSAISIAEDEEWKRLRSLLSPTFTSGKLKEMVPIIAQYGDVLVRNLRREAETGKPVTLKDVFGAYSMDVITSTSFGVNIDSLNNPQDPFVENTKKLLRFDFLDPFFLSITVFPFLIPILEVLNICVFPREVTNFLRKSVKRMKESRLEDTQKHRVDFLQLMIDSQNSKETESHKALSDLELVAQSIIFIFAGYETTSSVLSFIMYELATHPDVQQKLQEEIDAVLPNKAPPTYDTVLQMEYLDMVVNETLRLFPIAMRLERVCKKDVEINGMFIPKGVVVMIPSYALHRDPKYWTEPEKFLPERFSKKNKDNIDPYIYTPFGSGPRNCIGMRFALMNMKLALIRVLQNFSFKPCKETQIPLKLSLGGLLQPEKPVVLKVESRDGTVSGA
The target of the next data set is HDAC4 (Homo sapiens, UniProt P56524). The data set is described as follows: Inhibition of HDAC4 (unknown origin) at 10 uM relative to control.
HDAC4, sequence (P56524 whole entry): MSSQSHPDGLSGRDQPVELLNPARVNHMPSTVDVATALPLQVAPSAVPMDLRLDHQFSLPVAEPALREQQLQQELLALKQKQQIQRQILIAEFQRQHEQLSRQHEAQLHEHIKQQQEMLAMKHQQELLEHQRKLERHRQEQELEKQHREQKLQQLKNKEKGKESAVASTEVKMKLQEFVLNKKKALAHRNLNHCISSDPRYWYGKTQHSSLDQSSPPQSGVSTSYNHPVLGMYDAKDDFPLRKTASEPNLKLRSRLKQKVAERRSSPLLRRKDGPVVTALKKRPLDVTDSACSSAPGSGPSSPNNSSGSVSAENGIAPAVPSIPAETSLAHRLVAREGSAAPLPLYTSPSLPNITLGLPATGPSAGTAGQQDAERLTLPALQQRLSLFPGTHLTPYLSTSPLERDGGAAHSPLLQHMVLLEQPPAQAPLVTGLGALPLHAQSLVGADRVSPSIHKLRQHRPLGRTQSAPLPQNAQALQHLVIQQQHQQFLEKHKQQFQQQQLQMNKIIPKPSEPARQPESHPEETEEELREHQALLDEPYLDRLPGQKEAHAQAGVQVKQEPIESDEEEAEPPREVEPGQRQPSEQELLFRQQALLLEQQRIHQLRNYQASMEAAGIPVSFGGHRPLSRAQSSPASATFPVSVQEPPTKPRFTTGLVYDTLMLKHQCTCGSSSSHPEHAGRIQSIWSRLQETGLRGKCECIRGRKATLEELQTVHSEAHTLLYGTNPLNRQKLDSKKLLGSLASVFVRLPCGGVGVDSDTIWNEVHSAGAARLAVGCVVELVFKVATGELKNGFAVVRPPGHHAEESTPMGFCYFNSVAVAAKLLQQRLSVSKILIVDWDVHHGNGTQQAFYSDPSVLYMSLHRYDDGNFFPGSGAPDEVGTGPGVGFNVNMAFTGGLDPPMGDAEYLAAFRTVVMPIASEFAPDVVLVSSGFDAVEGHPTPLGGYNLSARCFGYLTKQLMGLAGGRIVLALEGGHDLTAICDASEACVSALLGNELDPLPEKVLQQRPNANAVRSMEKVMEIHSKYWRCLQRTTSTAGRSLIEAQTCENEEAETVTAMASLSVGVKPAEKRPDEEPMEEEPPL
The target of another data set is CYP2C19 (Homo sapiens, UniProt P33261). The data set is described as follows: Inhibition of CYP2C19 (unknown origin) at 10 uM relative to control. In kind it is ADME.
CYP2C19, sequence (P33261 whole entry): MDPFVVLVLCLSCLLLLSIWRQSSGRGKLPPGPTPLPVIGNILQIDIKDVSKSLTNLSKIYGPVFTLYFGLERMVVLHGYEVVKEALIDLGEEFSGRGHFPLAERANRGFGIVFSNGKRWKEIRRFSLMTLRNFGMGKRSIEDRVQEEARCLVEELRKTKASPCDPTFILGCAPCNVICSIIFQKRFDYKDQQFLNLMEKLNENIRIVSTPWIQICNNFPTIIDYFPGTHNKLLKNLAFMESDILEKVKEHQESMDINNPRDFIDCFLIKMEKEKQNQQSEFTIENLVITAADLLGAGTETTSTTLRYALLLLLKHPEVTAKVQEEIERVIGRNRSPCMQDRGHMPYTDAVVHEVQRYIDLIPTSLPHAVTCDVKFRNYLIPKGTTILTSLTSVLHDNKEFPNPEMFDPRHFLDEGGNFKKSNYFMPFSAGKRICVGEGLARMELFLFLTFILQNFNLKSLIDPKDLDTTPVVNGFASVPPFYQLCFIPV
A short description of data set [2]: Cytotoxicity against human HEK293 cells assessed as cell growth inhibition at 10 uM after 24 hrs relative to control. In kind it is cell-based.
Another data set addresses T2, CYP1A2 (Homo sapiens, UniProt P05177).
T2 sequence (P05177 whole entry): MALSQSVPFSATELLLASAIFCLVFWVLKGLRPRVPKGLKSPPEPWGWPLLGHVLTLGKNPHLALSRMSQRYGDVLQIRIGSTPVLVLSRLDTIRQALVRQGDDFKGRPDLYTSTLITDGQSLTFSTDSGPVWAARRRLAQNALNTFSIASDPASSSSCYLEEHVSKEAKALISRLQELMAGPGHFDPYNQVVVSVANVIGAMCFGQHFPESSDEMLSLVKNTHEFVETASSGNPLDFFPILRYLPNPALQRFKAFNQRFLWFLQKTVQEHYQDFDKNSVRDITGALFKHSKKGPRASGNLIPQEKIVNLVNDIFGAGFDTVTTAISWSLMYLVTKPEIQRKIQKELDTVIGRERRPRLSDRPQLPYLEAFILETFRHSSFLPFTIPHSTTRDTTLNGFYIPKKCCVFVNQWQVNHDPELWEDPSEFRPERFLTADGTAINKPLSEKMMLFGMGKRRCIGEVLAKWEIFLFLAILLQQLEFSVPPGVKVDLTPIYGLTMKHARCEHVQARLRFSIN
The data set is described as follows: Inhibition of CYP1A2 (unknown origin) at 10 uM relative to control. The format is ADME.

The nature of data set [3]: Cytotoxicity against human MCF7 cells assessed as cell growth inhibition at 10 uM after 48 hrs relative to control. The format is cell-based.
The next data set addresses T3, HDAC8 (Homo sapiens, UniProt Q9BY41).
T3 sequence (Q9BY41 whole entry): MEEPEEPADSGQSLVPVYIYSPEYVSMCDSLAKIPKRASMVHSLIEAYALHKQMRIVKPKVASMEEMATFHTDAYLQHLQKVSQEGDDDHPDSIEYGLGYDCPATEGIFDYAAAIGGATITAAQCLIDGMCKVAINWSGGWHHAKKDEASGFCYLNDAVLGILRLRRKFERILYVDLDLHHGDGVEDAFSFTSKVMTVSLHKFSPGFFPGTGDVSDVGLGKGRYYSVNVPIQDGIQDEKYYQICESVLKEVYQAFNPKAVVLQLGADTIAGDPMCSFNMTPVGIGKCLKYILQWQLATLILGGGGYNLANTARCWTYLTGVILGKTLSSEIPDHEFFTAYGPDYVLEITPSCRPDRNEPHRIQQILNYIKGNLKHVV
The data set is described as follows: Inhibition of HDAC8 (unknown origin) at 10 uM relative to control.

The nature of data set [4]: Cytotoxicity against human hTERT cells assessed as cell growth inhibition at 10 uM after 24 hrs relative to control. The format is cell-based, hTERT-BJ.
The nature of data set [5]: Cytotoxicity against human MCF7 cells assessed as cell growth inhibition at 10 uM after 24 hrs relative to control. In kind it is cell-based.
Data set [6] in a line: Cytotoxicity against human HEK293 cells assessed as cell growth inhibition at 10 uM after 48 hrs relative to control. The format is cell-based.
A further data set addresses hERG (KCNH2) (Homo sapiens, UniProt Q12809). The data set is described as follows: Inhibition of human ERG at 10 uM by fluorescence polarization assay relative to control. On the technique in general: Fluorescence polarisation rises when a labelled molecule tumbles more slowly, as on binding a larger partner.
The next data set has as its target T4, HDAC6 (Homo sapiens, UniProt Q9UBN7).
T4 sequence (Q9UBN7 whole entry): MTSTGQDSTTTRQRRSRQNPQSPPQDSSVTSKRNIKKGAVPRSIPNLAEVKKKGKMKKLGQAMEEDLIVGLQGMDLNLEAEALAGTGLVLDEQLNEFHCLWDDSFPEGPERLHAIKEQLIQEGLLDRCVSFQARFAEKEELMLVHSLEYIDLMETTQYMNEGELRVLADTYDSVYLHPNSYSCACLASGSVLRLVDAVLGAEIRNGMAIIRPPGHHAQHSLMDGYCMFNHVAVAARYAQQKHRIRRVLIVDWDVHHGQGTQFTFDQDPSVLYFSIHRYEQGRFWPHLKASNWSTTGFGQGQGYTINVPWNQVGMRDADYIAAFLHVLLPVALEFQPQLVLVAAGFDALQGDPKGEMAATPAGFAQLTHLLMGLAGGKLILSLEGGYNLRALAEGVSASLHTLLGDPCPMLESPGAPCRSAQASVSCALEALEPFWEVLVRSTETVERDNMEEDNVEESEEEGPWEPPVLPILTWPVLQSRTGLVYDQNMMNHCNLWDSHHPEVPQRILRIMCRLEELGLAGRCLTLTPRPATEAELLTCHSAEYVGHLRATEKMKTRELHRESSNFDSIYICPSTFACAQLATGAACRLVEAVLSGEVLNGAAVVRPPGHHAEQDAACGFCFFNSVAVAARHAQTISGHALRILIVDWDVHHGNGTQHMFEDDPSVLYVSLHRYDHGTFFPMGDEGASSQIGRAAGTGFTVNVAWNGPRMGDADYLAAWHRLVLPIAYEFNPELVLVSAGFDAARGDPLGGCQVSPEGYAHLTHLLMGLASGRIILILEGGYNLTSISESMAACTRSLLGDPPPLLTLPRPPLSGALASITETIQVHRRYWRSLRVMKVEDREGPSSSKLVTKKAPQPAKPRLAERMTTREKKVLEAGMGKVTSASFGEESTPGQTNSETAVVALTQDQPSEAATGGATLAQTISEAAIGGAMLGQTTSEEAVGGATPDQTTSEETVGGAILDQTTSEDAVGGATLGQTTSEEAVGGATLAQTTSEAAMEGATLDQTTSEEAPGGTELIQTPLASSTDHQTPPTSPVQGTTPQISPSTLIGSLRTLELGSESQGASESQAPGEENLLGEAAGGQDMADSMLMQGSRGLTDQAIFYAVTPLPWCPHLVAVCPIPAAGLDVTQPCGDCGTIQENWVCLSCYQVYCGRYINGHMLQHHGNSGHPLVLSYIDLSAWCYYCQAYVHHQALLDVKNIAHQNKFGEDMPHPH
The data set is described as follows: Inhibition of HDAC6 (unknown origin) at 10 uM relative to control.

Data set [7] can be described thus: Cytotoxicity against human U2OS cells assessed as cell growth inhibition at 10 uM after 48 hrs relative to control. In kind it is cell-based.
A short description of data set [8]: Cytotoxicity against human U2OS cells assessed as cell growth inhibition at 10 uM after 24 hrs relative to control. The format is cell-based.
Data set [9] concerns the target 3',5'-cyclic-AMP phosphodiesterase 4C (Homo sapiens) (UniProt Q08493). The data set is described as follows: Inhibition of PDE4C1 (unknown origin) at 10 uM relative to control.
Another data set addresses HDAC9 (Homo sapiens, UniProt Q9UKV0). The data set can be described thus: Inhibition of HDAC9 (unknown origin) at 10 uM relative to control.

Where only a bound is given, the exact number is not on record here.

A word on the inhibition: it is the relative decrease from the control value, in per cent.

HDAC9, sequence (Q9UKV0 whole entry): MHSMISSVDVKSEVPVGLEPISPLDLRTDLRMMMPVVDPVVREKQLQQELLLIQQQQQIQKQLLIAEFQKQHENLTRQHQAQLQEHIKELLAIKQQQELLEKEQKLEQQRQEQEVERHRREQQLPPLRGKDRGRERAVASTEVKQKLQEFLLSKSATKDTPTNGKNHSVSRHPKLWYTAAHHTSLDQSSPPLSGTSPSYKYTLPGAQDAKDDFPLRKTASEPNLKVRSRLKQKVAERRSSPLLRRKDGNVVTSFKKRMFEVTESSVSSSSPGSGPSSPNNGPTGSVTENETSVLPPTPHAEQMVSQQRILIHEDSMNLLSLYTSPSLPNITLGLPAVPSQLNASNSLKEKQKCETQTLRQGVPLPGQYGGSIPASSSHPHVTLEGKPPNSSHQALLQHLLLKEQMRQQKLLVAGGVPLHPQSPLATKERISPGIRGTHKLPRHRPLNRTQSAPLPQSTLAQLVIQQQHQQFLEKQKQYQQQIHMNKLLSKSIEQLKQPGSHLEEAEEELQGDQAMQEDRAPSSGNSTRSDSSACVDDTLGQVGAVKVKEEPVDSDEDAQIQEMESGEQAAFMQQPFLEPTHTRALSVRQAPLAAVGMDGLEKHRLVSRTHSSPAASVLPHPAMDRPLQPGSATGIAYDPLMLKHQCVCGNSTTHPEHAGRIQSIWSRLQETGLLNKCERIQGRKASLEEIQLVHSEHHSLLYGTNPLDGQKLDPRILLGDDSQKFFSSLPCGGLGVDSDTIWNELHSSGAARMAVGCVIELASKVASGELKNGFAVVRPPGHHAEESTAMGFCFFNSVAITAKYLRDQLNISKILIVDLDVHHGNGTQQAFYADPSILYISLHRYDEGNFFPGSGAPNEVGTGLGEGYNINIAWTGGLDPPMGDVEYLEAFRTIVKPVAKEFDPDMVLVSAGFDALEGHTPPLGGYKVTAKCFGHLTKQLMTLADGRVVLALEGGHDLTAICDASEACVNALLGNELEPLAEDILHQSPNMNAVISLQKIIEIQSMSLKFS
CYP2C9, sequence (P11712 whole entry): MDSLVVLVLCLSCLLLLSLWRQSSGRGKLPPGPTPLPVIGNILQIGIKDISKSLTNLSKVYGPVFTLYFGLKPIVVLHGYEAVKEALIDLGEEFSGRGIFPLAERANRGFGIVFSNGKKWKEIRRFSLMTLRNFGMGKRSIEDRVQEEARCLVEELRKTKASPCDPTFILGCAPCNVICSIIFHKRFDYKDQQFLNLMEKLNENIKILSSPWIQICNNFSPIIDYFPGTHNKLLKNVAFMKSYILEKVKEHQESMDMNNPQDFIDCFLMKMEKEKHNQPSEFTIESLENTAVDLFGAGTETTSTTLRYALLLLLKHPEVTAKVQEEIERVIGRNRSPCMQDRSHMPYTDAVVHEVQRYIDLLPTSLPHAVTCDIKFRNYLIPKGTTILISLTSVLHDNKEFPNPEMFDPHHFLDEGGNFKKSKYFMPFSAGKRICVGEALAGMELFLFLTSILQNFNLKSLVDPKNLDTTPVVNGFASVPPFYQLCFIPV
Aurora B, sequence (Q96GD4 whole entry): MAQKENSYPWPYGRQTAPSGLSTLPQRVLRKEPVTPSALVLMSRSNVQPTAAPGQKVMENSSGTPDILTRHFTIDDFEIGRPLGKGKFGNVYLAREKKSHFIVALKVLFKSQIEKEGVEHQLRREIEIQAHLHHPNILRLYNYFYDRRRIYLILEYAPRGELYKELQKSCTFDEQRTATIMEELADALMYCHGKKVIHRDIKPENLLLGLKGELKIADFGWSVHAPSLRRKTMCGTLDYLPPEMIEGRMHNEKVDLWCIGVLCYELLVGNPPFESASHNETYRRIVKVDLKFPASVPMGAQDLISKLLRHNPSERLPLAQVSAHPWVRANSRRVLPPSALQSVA
CYP2D6, sequence (P10635 whole entry): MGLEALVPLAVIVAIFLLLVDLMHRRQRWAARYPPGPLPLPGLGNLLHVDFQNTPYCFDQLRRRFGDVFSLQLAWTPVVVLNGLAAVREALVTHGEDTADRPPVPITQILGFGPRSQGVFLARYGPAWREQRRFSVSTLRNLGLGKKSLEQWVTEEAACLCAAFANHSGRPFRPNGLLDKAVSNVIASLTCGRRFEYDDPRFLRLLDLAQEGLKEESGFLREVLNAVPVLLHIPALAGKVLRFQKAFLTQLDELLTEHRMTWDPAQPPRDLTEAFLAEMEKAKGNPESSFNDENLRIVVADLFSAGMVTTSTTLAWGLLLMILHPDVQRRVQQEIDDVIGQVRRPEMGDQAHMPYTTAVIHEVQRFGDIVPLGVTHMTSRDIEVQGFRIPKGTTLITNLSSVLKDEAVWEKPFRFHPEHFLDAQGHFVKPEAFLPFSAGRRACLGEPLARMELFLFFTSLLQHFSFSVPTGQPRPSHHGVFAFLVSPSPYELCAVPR

As to `CCNc1ccc(Cc2ccc(OCC(=O)O)cc2)cc1C(C)C`, the inhibition at 10 µM at CYP2C9 is more than 91%; on CYP2D6, 51%; against SIRT7 it was less than 50%; on Aurora B, less than 50%; at CYP3A4, more than 91%; on HDAC4, less than 50%. Besides, the inhibition at 10 µM on CYP2C19 was more than 91%; against CYP1A2, more than 91%; at HDAC8 it was less than 50%; at hERG (KCNH2) it was more than 91%; against HDAC6, less than 50%; at HDAC9, less than 50%. The inhibition at 48 h, 10 µM in [1] was less than 50%; in data set [3], 51%; in data set [6] it was less than 50%; in [7], less than 50%. For the same molecule, the inhibition at 24 h, 10 µM in data set [2] was less than 50%; in data set [4] it was 51%; in data set [5], 65%; in [8], less than 50%. For the same molecule, in data set [9], the inhibition was less than 50%.

As to `Cc1cc(OCCN)cc(C)c1Cc1ccc(O)cc1`, the inhibition at 10 µM on CYP2C9 was more than 91%; against CYP2D6, 51%; against SIRT7 it was less than 50%; against Aurora B, less than 50%; on CYP3A4, 51%; against HDAC4, less than 50%. The inhibition at 10 µM is more than 91% against CYP2C19; 51% on CYP1A2; less than 50% against HDAC8; 51% on hERG (KCNH2); less than 50% at HDAC6; less than 50% on HDAC9. Also, the inhibition at 48 h, 10 µM in [1], in data set [3], in data set [6] and in [7] was less than 50% throughout. The inhibition at 24 h, 10 µM in data set [2], in data set [4], in data set [5] and in data set [8] was less than 50% each time. The inhibition in data set [9] is less than 50%.

With `NCCOc1ccc(Cc2ccc(N)cc2)c(C(F)(F)F)c1`, the inhibition at 10 µM was more than 91% against CYP2C9; 51% against CYP2D6; less than 50% at SIRT7; less than 50% at Aurora B; 51% against CYP3A4; less than 50% against HDAC4. The inhibition at 10 µM was more than 91% at CYP2C19; more than 91% against CYP1A2; less than 50% against HDAC8; 51% on hERG (KCNH2); less than 50% against HDAC6; less than 50% against HDAC9. Moreover, the inhibition at 48 h, 10 µM in data set [1], in [3], in [6] and in [7] was less than 50% each time. Also, the inhibition at 24 h, 10 µM in [2], in data set [4], in data set [5] and in data set [8] was less than 50% each time. The molecule also had an inhibition in data set [9] of less than 50%.

Turning to `CC(C)c1cc(Cc2ccc(OCC(=O)O)cc2)ccc1N`, the inhibition at 10 µM on CYP2C9, at CYP2D6, against SIRT7, at Aurora B, against CYP3A4 and against HDAC4 was less than 50% each time. The inhibition at 10 µM against CYP2C19 was less than 50%; against CYP1A2, less than 50%; at HDAC8, less than 50%; against hERG (KCNH2) it was less than 40%; against HDAC6 it was less than 50%; at HDAC9, less than 50%. For the same molecule, the inhibition at 48 h, 10 µM in data set [1], in data set [3], in data set [6] and in data set [7] was less than 50% in each case. Further, the inhibition at 24 h, 10 µM in data set [2], in [4], in [5] and in data set [8] was less than 50% in each case. Also, in [9], the inhibition is less than 50%.

For the origin of these results see ChEMBL document CHEMBL4680157, “Design, synthesis and biological evaluation of novel TRβ selective agonists sustained by ADME-toxicity analysis” (Eur J Med Chem, 2020).
